Results taken from patent US20080234464A1, “Compound Having Amino Acid Residue or Peptide Residue and Process for Producing the Same” (priority 2005, published 2008).

How the values were obtained:
Type in all cases: cell-based
[1] = system: NIH-3T3 (mouse embryonic fibroblast) cells; experiment: Nucleic acid transfection experiment (oligo DNA level), FITC-labeled single-strand DNA, FACS; conditions: 0.3 μg FITC-labeled single-strand DNA (20 mer), 4 hours at 37° C.
Method: (§1) PC3 ([…]) cells, UMUC3 (human bladder carcinoma) cells, T24 (human urinary bladder carcinoma) cells and NIH-3T3 (mouse embryonic fibroblast) cells were separately precultured in a 12-well plate, either in a 10% FBS-containing RPMI medium (PC3 cells, NIH-3T3 cells, and T24 cells) or in a 10% FBS-containing DMEM medium (UMUC cells), to attain a 60 to 70% confluent state.
(§2) A 1 μl quantity of each of the compounds shown in Table 1 [solutions containing compound (1-A) or (1-B) at 0.37, 0.13 and 0.04 mM] was added to each of a corresponding number of containers each holding 50 μl of non-serum medium, mixed by tapping, and incubated at room temperature for 5 minutes. Subsequently, 0.3 μg of FITC-labeled single-strand DNA (20 mer) (FITC-[…]: product of Proligo) was added to each of the above-prepared media containing a carrier for nucleic acid transfection, mixed by tapping, and incubated at 37° C. for 30 minutes (mixed by tapping every 10 minutes). The obtained mixtures were separately added to the above wells in which the cell culture had been completed, leveled by lightly tapping, and then incubated at 37° C. for 4 hours. The cells were collected, and FITC-positive cells were counted by FACS to calculate DNA transfection efficiency (%) in cells. Further, for the comparison with conventional carriers for nucleic acid transfection (Lipofectamine 2000, TransIt-TKO, and Fugene 6), siRNA transfection efficiency (%) in PC3 cells was calculated in the same manner as above using the protocol recommended by the respective manufacturer and corresponding to a transfection nucleic acid amount of 0.3 μg.

[2] = system: PC3 (human lung adenocarcinoma) cells; experiment: as above; conditions: for DNA transfection efficiency in cells (%): PC3, 0.3 μg FITC-labeled single-strand DNA (20 mer), 4 hours at 37° C.
Method: as §1, §2

[3] = system: T24 (human urinary bladder carcinoma) cells; experiment: as above; conditions: 0.3 μg FITC-labeled single-strand DNA (20 mer), 4 hours at 37° C.
Method: as §1, §2

[4] = system: UMUC3 (human bladder carcinoma) cells; experiment: as above; conditions: 0.3 μg FITC-labeled single-strand DNA (20 mer), 4 hours at 37° C.
Method: as §1, §2

[5] = system: PC3 (human lung adenocarcinoma) cells; experiment: Nucleic acid transfection experiment (siRNA level), FITC-labeled siRNA, flow cytometer; conditions: compounds (1-A)/(1-B): 0.6 mM), 0.5 μg FITC-labeled siRNA, 2 hours
Method: (§3) In order to attain 50 to 60% confluence at the time of siRNA transfection, PC3 ([…]) cells, UMUC3 (human bladder carcinoma) cells and T24 (human urinary bladder carcinoma) cells were separately seeded in a 6-well plate on the day before the transfection and cultured at 37° C. in a 5% CO2 incubator.
(§4) A 100-μl quantity of Opti-MEM was added to each of several 1.5-ml tubes, and two samples each of 1, 3 and 10 μl of PBS solution containing the carriers for nucleic acid transfection of Reference Example 3 in one of the two samples and Reference Example 8 in the other sample (each carrier for nucleic acid transfection content had been adjusted so that compound (1L-A) was at 0.067 mM) were separately added to each tube and then left to stand at room temperature for about 10 minutes. Further, 0.5 μg of FITC-labeled siRNA (fluorescent labeled siRNA ((sense)Fluo-[…]/(antisense)[…]: product of Proligo) was added to each tube and then left to stand for 15 minutes, forming a complex of siRNA and the carrier for gene transfection.
(§5) Separately, 50 μl of Opti-MEM was added to each of several 1.5-ml tubes, and two samples each of 1, 3 and 10 μl of PBS solution containing 0.6 mM compound (1-A) in one of the two samples and 0.6 mM compound (1-B) in the other sample were separately added to each tube, mixed by tapping, and then left to stand at room temperature for 5 minutes. Further, 0.5 μg of FITC-labeled siRNA (same as above) was added to each tube and then left to stand for 30 minutes, forming a complex of the siRNA and carrier for gene transfection.
(§6) After a while, the prepared solutions containing the siRNA and carrier for gene transfection were separately added to the wells in which the cells were present at 50 to 60% confluence. The plates were slowly pitched and rolled, and culture was then performed at 37° C. under a condition of 5% CO2 for 2 hours. After the culture was completed, FITC-positive cells were counted by a flow cytometer to calculate the siRNA transfection efficiency (%) in cells. Further, for comparison with conventional carriers for nucleic acid transfection (Lipofectamine 2000, TransIt-TKO, Metafectene, and oligofectamine), siRNA transfection efficiency (%) in cells was calculated in the same manner as above using the protocol recommended by the respective manufacture and corresponding to a transfection nucleic acid amount of 0.5 μg.

[6] = system: T24 (human urinary bladder carcinoma) cells; experiment: as above; conditions: compounds (1-A)/(1-B): 0.6 mM), 0.5 μg FITC-labeled siRNA, 2 hours
Method: as §3, §4, §5, §6

[7] = system: UMUC3 (human bladder carcinoma) cells; experiment: as above; conditions: compounds (1-A)/(1-B): 0.6 mM), 0.5 μg FITC-labeled siRNA, 2 hours
Method: as §3, §4, §5, §6

[8] = 1 μl of 0.04 mM compound solution
[9] = 1 μl of 0.13 mM compound solution
[10] = 1 μl of 0.37 mM compound solution
[11] = amount 1 μl of carrier solution (Reference Examples: 0.067 mM as compound (1L-A)
[12] = amount 3 μl of carrier solution (Reference Examples: 0.067 mM as compound (1L-A)
[13] = amount 10 μl of carrier solution (Reference Examples: 0.067 mM as compound (1L-A)

Q: How did the “DNA transfection efficiency in cells (%)” value [1, 8] turn out when N=C(N)NCCCC(N)C(=O)CC(CNC(=N)N)C(=O)NC(CCCNC(=N)N)C(=O)NCCCCC(N)C(=O)NC(CCCCNC(=O)C(CCCNC(=N)N)NC(=O)C(CNC(=N)N)CC(=O)C(N)CCCNC(=N)N)C(=O)NC(CCCCNC(=O)C(CCCNC(=N)N)NC(=O)C(CNC(=N)N)CC(=O)C(N)CCCNC(=N)N)C(=O)NC(CCCCNC(=O)C(CCCNC(=N)N)NC(=O)C(CNC(=N)N)CC(=O)C(N)CCCNC(=N)N)C(=O)NC(CCCCNC(=O)C(CCCNC(=N)N)NC(=O)C(CNC(=N)N)CC(=O)C(N)CCCNC(=N)N)C(=O)NCCCCCC(=O)NCCCCCC(N)=O (stereo not shown) [(1-B)] was run?
A: 84.0%

Q: What about the “DNA transfection efficiency in cells (%)” value [1, 9] of the same compound?
A: 93.2%

Q: And the “DNA transfection efficiency in cells (%)” value [1, 10]?
A: 87.0%

Q: What about the “DNA transfection efficiency in cells (%)” value [2, 8] of the same compound?
A: 65.0%

Q: And the “DNA transfection efficiency in cells (%)” value [2, 9]?
A: 76.1%

Q: And the “DNA transfection efficiency in cells (%)” value [2, 10]?
A: 83.8%

Q: And the “suitability for introducing nucleic acids into cells (conclusion from Table 1)” value ([2]; conclusion over PC3, UMUC3, T24 and NIH-3T3 cells)?
A: excellently suitable for introducing nucleic acids into cells

Q: And the “DNA transfection efficiency in cells (%)” value [3, 8]?
A: 13.4%

Q: What about the “DNA transfection efficiency in cells (%)” value [3, 9] of the same compound?
A: 26.0%

Q: And the “DNA transfection efficiency in cells (%)” value [3, 10]?
A: 31.4%

Q: And the “DNA transfection efficiency in cells (%)” value [4, 8]?
A: 61.7%

Q: What about the “DNA transfection efficiency in cells (%)” value [4, 9] of the same compound?
A: 77.2%

Q: And the “DNA transfection efficiency in cells (%)” value [4, 10]?
A: 61.5%

Q: And the “siRNA transfection efficiency in cells (%)” value [5, 11]?
A: 3.5%

Q: And the “siRNA transfection efficiency in cells (%)” value [5, 12]?
A: 10.1%

Q: What about the “siRNA transfection efficiency in cells (%)” value [5, 13] of the same compound?
A: 42.0%

Q: And the “siRNA transfection efficiency in cells (%)” value [6, 11]?
A: 11.6%

Q: And the “siRNA transfection efficiency in cells (%)” value [6, 12]?
A: 19.2%

Q: What about the “siRNA transfection efficiency in cells (%)” value [6, 13] of the same compound?
A: 60.7%

Q: And the “siRNA transfection efficiency in cells (%)” value [7, 11]?
A: 5.3%

Q: And the “siRNA transfection efficiency in cells (%)” value [7, 12]?
A: 4.4%

Q: What about the “siRNA transfection efficiency in cells (%)” value [7, 13] of the same compound?
A: 7.0%
